In PubChem BioAssay (NCI):
“And” between values parts separate entries of the source, which are not always exact repeats. Equal entries are not always repeated.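 Test compounds were applied to cells in 96-well plates for 48 hours at 5 doses. GI50 = concentration required for 50% inhibition of growth. TGI: concentration producing complete growth inhibition.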

What was measured:
Experiment in all cases: NCI-60 cell line screen, 48 h
CAKI-1 renal = system: CAKI-1 renal
786-0 renal = system: 786-0 renal
HOP-62 NSCLC = system: HOP-62 NSCLC
HCT-116 colon = system: HCT-116 colon
HL-60(TB) leukemia = system: HL-60(TB) leukemia
KM12 colon = system: KM12 colon
EKVX NSCLC = system: EKVX NSCLC
NCI-H23 lung = system: NCI-H23 lung
OVCAR-4 ovarian = system: OVCAR-4 ovarian
MDA-MB-231 breast = system: MDA-MB-231 breast

SMILES | TGI (CAKI-1 renal) | TGI (786-0 renal) | TGI (HOP-62 NSCLC) [µM] | TGI (HCT-116 colon) [µM] | TGI (HL-60(TB) leukemia) [µM] | TGI (KM12 colon) | TGI (EKVX NSCLC) | TGI (NCI-H23 lung) [µM] | TGI (OVCAR-4 ovarian) [µM] | GI50 (CAKI-1 renal) [µM] | GI50 (MDA-MB-231 breast) [µM] | TGI (MDA-MB-231 breast) | GI50 (786-0 renal) [µM] | GI50 (HOP-62 NSCLC) [µM] | GI50 (NCI-H23 lung) [µM] | GI50 (OVCAR-4 ovarian) [µM] | GI50 (HCT-116 colon) [µM] | GI50 (KM12 colon) [µM] | GI50 (EKVX NSCLC) [µM]
CN1CCCc2nc3ccccc3n2C1 | > 100 µM | > 100 µM | > 100 | > 100 | > 100 | > 100 µM | > 100 µM | > 100 | > 100 |  |  |  |  |  |  |  |  |  | 
O=C(Nc1nc(=S)[nH][nH]1)C(=O)C(c1cnc2ccc([N+](=O)[O-])cc2n1)[N+](=O)[O-] (stereo not given) | > 100 µM | > 100 µM | > 100 | > 100 | > 100 | > 100 µM | > 100 µM | > 100 | > 100 |  |  |  |  |  |  |  |  |  | 
COc1ccc([C@@]23Oc4cc(OC)cc(OC)c4[C@]2(O)[C@H](O)[C@H](C(=O)N(C)C)[C@H]3c2ccccc2)cc1 | 0.225 µM and 0.692 µM and 0.262 µM | 0.159 µM and 0.0333 µM and 0.215 µM |  |  |  | 0.0892 µM and 0.281 µM | 0.22 µM and 0.17 µM |  |  | 0.0218 | 0.0231 | 0.049 µM and 0.00949 µM and 0.0756 µM | 0.0287 | 0.0152 | 0.0152 | 0.0149 |  |  | 
N#Cc1ccccc1Sc1ccccc1N | > 100 µM | > 100 µM | > 100 |  | > 100 | > 100 µM | > 100 µM | > 100 | > 100 |  |  |  |  |  |  |  |  |  | 
CCc1c(OC(C)=O)c2c(NC3OC(COC(C)=O)C(OC(C)=O)C(OC(C)=O)C3OC(C)=O)nc(SC)nc2oc1=O (stereo not given) | > 100 µM | > 100 µM | > 100 | > 100 | > 100 | > 100 µM | > 100 µM | > 100 | > 100 |  |  |  |  |  |  |  |  |  | 
Cc1ccc(S(=O)(=O)Nc2ccccc2C(C)(C)C)cc1 | 59.3 µM | 62.5 µM | 45.9 | 29.1 | 44.7 | 47.1 µM | > 100 µM | 46.3 | > 100 |  |  |  |  |  |  |  |  |  | 
CCC(Oc1ccc(OC)c2c1C(=O)CCC2)C(=O)O (stereo not given) |  | > 100 µM | > 100 |  | > 100 | > 100 µM | > 100 µM | > 100 | > 100 |  |  |  |  |  |  |  |  |  | 
O=C([O-])c1ccc([I+]c2ccccc2)cc1 | > 100 µM | > 100 µM | > 100 | > 100 | > 100 | > 100 µM | > 100 µM | > 100 | > 100 |  |  |  |  |  |  |  |  |  | 
CCCCCCCCCCCCCCCC(=O)OCC1OC(n2cc(F)c(=O)[nH]c2=O)C(NC(=O)OCc2ccccc2)C(O)C1O (stereo not given) | 33.8 µM | 36.2 µM |  | 30.4 | 43.1 | 45 µM | 52.8 µM | 43.6 | 42 |  |  |  |  |  |  |  |  |  | 
CS(=O)(=O)OCCN1CCN(C(=O)c2ccc(Cl)c3c(Nc4ccc(S(=O)(=O)N=C(N)N)cc4)c4ccccc4nc23)CC1 | > 100 µM | > 100 µM | > 100 | > 100 | > 100 | > 100 µM |  | > 100 | > 100 |  |  |  |  |  |  |  |  |  | 
O=C(CI)NC(=O)NC(=O)NCc1ccccc1 | 3.12 µM | 4.18 µM | 42 | 12.6 |  | 24.9 µM | 39.6 µM | 19.5 | 31 | 1.69 | 3.9 | 15.7 µM | 1.98 | 18.5 | 4.32 | 4.42 | 3.39 | 10.9 | 17.5
